Source: ChEMBL document CHEMBL1136387, “Unique spirocyclopiperazinium salt. Part 2: synthesis and structure-activity relationship of dispirocyclopiperazinium salts as analgesics” (Bioorg Med Chem Lett, 2003)

Legend:
Mus musculus [1] = experiment: (§1) In vivo analgesic activity evaluated by using acetic acid writhing test in mice administered subcutaneously at a dose of 10 mg/kg; format: functional; conditions: sc, route subcutaneous
Mus musculus [2] = experiment: In vivo analgesic activity evaluated by using acetic acid writhing test in mice administered subcutaneously at a dose of […]; format: functional; conditions: sc, dose 2.5 mg/kg, route subcutaneous
Mus musculus [3] = experiment: In vivo analgesic activity evaluated by using acetic acid writhing test in mice administered subcutaneously at a dose of 20 mg/kg; format: functional; conditions: sc, route subcutaneous
Mus musculus [4] = experiment: (§2) In vivo analgesic activity evaluated by using acetic acid writhing test in mice administered subcutaneously at a dose of 5 mg/kg; format: functional; conditions: sc, route subcutaneous
Mus musculus [5] = experiment: as §1; format: functional; conditions: sc, route subcutaneous; remark: listed apart in the source
Mus musculus [6] = experiment: as §2; format: functional; conditions: sc, route subcutaneous; remark: listed apart in the source
Mus musculus [7] = experiment: (§3) In vivo analgesic activity evaluated by using acetic acid writhing test in mice administered subcutaneously at a dose of 0.02 mg/kg; format: functional; conditions: sc, route subcutaneous
Mus musculus [8] = experiment: as §3; format: functional; conditions: sc, route subcutaneous; remark: listed apart in the source
[9] = Toxicity in mice administered subcutaneously; conditions: mouse, in vivo, sc
Mus musculus [10] = experiment: In vivo analgesic activity evaluated by using acetic acid writhing test in mice administered subcutaneously at a dose of 0.05 mg/kg; format: functional; conditions: sc, route subcutaneous
Mus musculus [11] = organism: Mus musculus; experiment: […]; format: functional; conditions: sc, route subcutaneous
Mus musculus [12] = experiment: (§4) In vivo analgesic activity evaluated by using acetic acid writhing test in mice administered subcutaneously at a dose of 2 mg/kg; format: functional; conditions: sc, route subcutaneous
Mus musculus [13] = experiment: as §4; format: functional; conditions: sc, route subcutaneous; remark: listed apart in the source
Mus musculus [14] = experiment: (§5) In vivo analgesic activity evaluated by using acetic acid writhing test in mice administered subcutaneously at a dose of 0.2 mg/kg; format: functional; conditions: sc, route subcutaneous
Mus musculus [15] = experiment: as §5; format: functional; conditions: sc, route subcutaneous; remark: listed apart in the source

Question: Which results are given for `CCCCCCOC(CN1CC[N+]2(CCCC2)CC1)CN1CC[N+]2(CCCC2)CC1`?
Answer: inhibition in vivo at 10 mg/kg (Mus musculus [1]): 91%; inhibition in vivo at […] (Mus musculus [2]): 49%; inhibition in vivo at 20 mg/kg (Mus musculus [3]): 100%; inhibition in vivo at 5 mg/kg (Mus musculus [4]): 61%

Question: Which results are given for `C(CN1CC[N+]2(CCCC2)CC1)CN1CC[N+]2(CCCC2)CC1`?
Answer: inhibition in vivo at 10 mg/kg (Mus musculus [5]): 4.7%; inhibition in vivo at 5 mg/kg (Mus musculus [6]): 0%; inhibition in vivo at 10 mg/kg (Mus musculus [1]): 96%; inhibition in vivo at 5 mg/kg (Mus musculus [4]): 45.5%

Question: What does the source list for `CCOC(CN1CC[N+]2(CCCC2)CC1)CN1CC[N+]2(CCCC2)CC1`?
Answer: inhibition in vivo at 10 mg/kg (Mus musculus [1]): 46%; inhibition in vivo at 20 mg/kg (Mus musculus [3]): 90%; inhibition in vivo at 5 mg/kg (Mus musculus [4]): 34%

Question: Which inhibition in vivo at 0.02 mg/kg (Mus musculus [7]) does the source give for `O=C(CCCCCC(=O)N1CC[N+]2(CCCC2)CC1)N1CC[N+]2(CCCC2)CC1.[Br-].[Br-]` here?
Answer: 0%

Question: What about the inhibition in vivo at 0.02 mg/kg (Mus musculus [8]) of the same compound?
Answer: 0%

Question: What about the Death dose [9] of the same compound?
Answer: 0.2 mg/kg

Question: Which inhibition in vivo at 20 mg/kg (Mus musculus [3]) does the source give for `CCCCCCCCCCCCOC(CN1CC[N+]2(CCCC2)CC1)CN1CC[N+]2(CCCC2)CC1` here?
Answer: 18%

Question: For `C[N+]1(C)CCN(C(=O)CCCCC(=O)N2CC[N+](C)(C)CC2)CC1`, which inhibition in vivo at 0.05 mg/kg (Mus musculus [10]) is on record?
Answer: 60.1%

Question: For `CCCCCCCCCCCCCCCCCCOC(CN1CC[N+]2(CCCC2)CC1)CN1CC[N+]2(CCCC2)CC1`, which inhibition in vivo at 20 mg/kg (Mus musculus [11]) is on record?
Answer: 24%

Question: For `C(CCCN1CC[N+]2(CCCC2)CC1)CCN1CC[N+]2(CCCC2)CC1`, which inhibition in vivo at 2 mg/kg (Mus musculus [12]) is on record?
Answer: 72.4%

Question: And the inhibition in vivo at 2 mg/kg (Mus musculus [13])?
Answer: 56.6%

Question: Which inhibition in vivo at 2 mg/kg (Mus musculus [12]) does the source give for `O=C(CCC(=O)N1CC[N+]2(CCCC2)CC1)N1CC[N+]2(CCCC2)CC1.[Br-].[Br-]` here?
Answer: 47.7%

Question: And the inhibition in vivo at 2 mg/kg (Mus musculus [13])?
Answer: 0%

Question: And the Death dose [9]?
Answer: 20 mg/kg

Question: With `C(CCCCN1CC[N+]2(CCCC2)CC1)CCCN1CC[N+]2(CCCC2)CC1` as the compound, how does the inhibition in vivo at 2 mg/kg (Mus musculus [12]) read?
Answer: 98.6%

Question: And the inhibition in vivo at 2 mg/kg (Mus musculus [13])?
Answer: 0%

Question: With `O=C(CCCCC(=O)N1CC[N+]2(CCCC2)CC1)N1CC[N+]2(CCCC2)CC1.[Br-].[Br-]` as the compound, how does the inhibition in vivo at 0.2 mg/kg (Mus musculus [14]) read?
Answer: 8.1%

Question: What about the inhibition in vivo at 0.2 mg/kg (Mus musculus [15]) of the same compound?
Answer: 70.4%

Question: And the Death dose [9]?
Answer: 2 mg/kg

Question: What does the source list for `O=C(CC(=O)N1CC[N+]2(CCCC2)CC1)N1CC[N+]2(CCCC2)CC1.[Br-].[Br-]`?
Answer: inhibition in vivo at 2 mg/kg (Mus musculus [12]): 0%; inhibition in vivo at 2 mg/kg (Mus musculus [13]): 0%; Death dose [9]: 40 mg/kg

Question: What does the source list for `O=C(CCCCCCC(=O)N1CC[N+]2(CCCC2)CC1)N1CC[N+]2(CCCC2)CC1.[Br-].[Br-]`?
Answer: inhibition in vivo at 0.02 mg/kg (Mus musculus [7]): 27.5%; inhibition in vivo at 0.02 mg/kg (Mus musculus [8]): 0%; Death dose [9]: 0.2 mg/kg

Question: Which inhibition in vivo at 10 mg/kg (Mus musculus [1]) does the source give for `CN1CCN(C(=O)CCCCC(=O)N2CCN(C)CC2)CC1` here?
Answer: 10.9%

Question: Which inhibition in vivo at 2 mg/kg (Mus musculus [12]) does the source give for `O=C(CCCC(=O)N1CC[N+]2(CCCC2)CC1)N1CC[N+]2(CCCC2)CC1.[Br-].[Br-]` here?
Answer: 67.4%

Question: What about the inhibition in vivo at 2 mg/kg (Mus musculus [13]) of the same compound?
Answer: 0%

Question: And the Death dose [9]?
Answer: 20 mg/kg

Question: Which results are given for `C(CCCCCN1CC[N+]2(CCCC2)CC1)CCCCN1CC[N+]2(CCCC2)CC1`?
Answer: inhibition in vivo at 2 mg/kg (Mus musculus [12]): 84.6%; inhibition in vivo at 2 mg/kg (Mus musculus [13]): 0%

Question: Which inhibition in vivo at 5 mg/kg (Mus musculus [4]) does the source give for `O=C(CCCCC(=O)N1CCNCC1)N1CCNCC1` here?
Answer: 34.5%
